Several values for one entry are separate records, joined by “and”; a condition that tells them apart may be missing. Equal entries are not always repeated.
Organism: Rattus norvegicus
Experiment: DrugMatrix - Regimen: Daily Repeat
Format: toxicity, organism-based, Sprague-Dawley
Parameters: regimen Daily Repeat, gender Male, age 6-8 weeks
Conditions: in vivo; for ABSOLUTE BASOPHIL / ABSOLUTE EOSINOPHIL / ABSOLUTE LYMPHOCYTE / ABSOLUTE MONOCYTE / ABSOLUTE SEGMENTED NEUTROPHIL / HEMOGLOBIN / MEAN CORPUSCULAR HEMOGLOBIN / MEAN CORPUSCULAR VOLUME / BASOPHIL / EOSINOPHIL / ERYTHROCYTE COUNT / HEMATOCRIT / LEUKOCYTE COUNT / LYMPHOCYTE / MEAN CORPUSCULAR HEMOGLOBIN CONCENTRATION / MONOCYTE / NEUTROPHIL / PLATELET COUNT / NUCLEATED RED BLOOD CELLS: tissue Blood
[1] = ip, 40 mg/kg, 120 h, tissue Plasma, route intraperitoneal, dose level High, time 5 day, vehicle 100 % SALINE
[2] = ip, 40 mg/kg, […], route intraperitoneal, dose level High, time 14 day, vehicle 100 % SALINE
[3] = ip, 40 mg/kg, […], route intraperitoneal, dose level High, time 28 day, vehicle 100 % SALINE
[4] = ip, 40 mg/kg, […], tissue Plasma, route intraperitoneal, dose level High, time 14 day, vehicle 100 % SALINE
[5] = ip, 40 mg/kg, […], tissue Plasma, route intraperitoneal, dose level High, time 28 day, vehicle 100 % SALINE
[6] = sc, 34 mg/kg, 72 h, route subcutaneous, dose level Low, time 3 day, […]
[7] = sc, 34 mg/kg, 72 h, tissue Plasma, route subcutaneous, dose level Low, time 3 day, […]
[8] = sc, 34 mg/kg, 120 h, route subcutaneous, dose level Low, time 5 day, […]
[9] = sc, 34 mg/kg, 120 h, tissue Plasma, route subcutaneous, dose level Low, time 5 day, […]

For GENTAMICIN, the LIPASE [1] was 13.6 u/L and 7.25 u/L, the PHOSPHORUS [1] was 12.05 mg/dL and the POTASSIUM [1] was 5.95 MEQ/L. The SODIUM [1] was 150.75 MEQ/L, the “TOTAL BILIRUBIN” value [1] was 0.18 mg/dL and 0.33 mg/dL and the “TOTAL PROTEIN” value [1] was 5.74 G/DL and 6.48 G/DL. For the same sequence, the “URIC ACID” value [1] was 0.96 mg/dL, the ABSOLUTE BASOPHIL [2] was 72 cells/µL and the ABSOLUTE EOSINOPHIL [2] was 92 cells/µL. It also gave an ABSOLUTE LYMPHOCYTE [2] of 8980 cells/µL, an ABSOLUTE MONOCYTE [2] of 190 cells/µL and an ABSOLUTE SEGMENTED NEUTROPHIL [2] of 1000 cells/µL. For the same sequence, the HEMOGLOBIN [2] was 15.3 G/DL, the “MEAN CORPUSCULAR HEMOGLOBIN” value [2] was 19.4 pg and the “MEAN CORPUSCULAR VOLUME” value [2] was 59.54 fL. It also gave an ABSOLUTE BASOPHIL [3] of 99 cells/µL, an ABSOLUTE EOSINOPHIL [3] of 110 cells/µL and an ABSOLUTE LYMPHOCYTE [3] of 11600 cells/µL. The ABSOLUTE MONOCYTE [3] was 260 cells/µL, the ABSOLUTE SEGMENTED NEUTROPHIL [3] was 1950 cells/µL and the BASOPHIL [3] was 0.7%. For the same sequence, the EOSINOPHIL [3] was 0.81%, the “ERYTHROCYTE COUNT” value [3] was 8.29 x10E6/uL and the HEMATOCRIT [3] was 46.05%. For the same sequence, the HEMOGLOBIN [3] was 15.27 G/DL, the “LEUKOCYTE COUNT” value [3] was 14.13 x10E3/uL and the LYMPHOCYTE [3] was 82.22%. The “MEAN CORPUSCULAR HEMOGLOBIN” value [3] was 18.44 pg, the “MEAN CORPUSCULAR HEMOGLOBIN CONCENTRATION” value [3] was 33.17 G/DL and the “MEAN CORPUSCULAR VOLUME” value [3] was 55.59 fL. The MONOCYTE [3] was 1.82%, the NEUTROPHIL [3] was 14.01% and the “PLATELET COUNT” value [3] was 1416.3 x10E3/uL. For the same sequence, the “CARBON DIOXIDE” value [4] was 25.75 mmol/L, the CHLORIDE [4] was 107 MEQ/L and the SODIUM [4] was 150 MEQ/L. The “ALANINE AMINOTRANSFERASE” value [5] was 32.3 u/L, the ALBUMIN [5] was 3.62 G/DL and the “ALKALINE PHOSPHATASE” value [5] was 139.3 u/L. The “ASPARTATE AMINOTRANSFERASE” value [5] was 96 u/L, the “BLOOD UREA NITROGEN” value [5] was 14.9 mg/dL and the CHOLESTEROL [5] was 65.3 mg/dL. For the same sequence, the “CREATINE PHOSPHOKINASE” value [5] was 320.4 u/L, the CREATININE [5] was 0.65 mg/dL and the “LACTATE DEHYDROGENASE” value [5] was 119.4 u/L. The LIPASE [5] was 11 u/L, the PHOSPHORUS [5] was 9.46 mg/dL and the POTASSIUM [5] was 6.33 MEQ/L. The “TOTAL BILIRUBIN” value [5] was 0.17 mg/dL, the “TOTAL PROTEIN” value [5] was 6.66 G/DL and the “URIC ACID” value [5] was 1.24 mg/dL. For the same sequence, the “ABSOLUTE BASOPHIL” value [6] was 0 CELLS/uL, the “ABSOLUTE EOSINOPHIL” value [6] was 60.67 CELLS/uL and the “ABSOLUTE LYMPHOCYTE” value [6] was 14515.67 CELLS/uL. For the same sequence, the “ABSOLUTE MONOCYTE” value [6] was 63 CELLS/uL, the “ABSOLUTE SEGMENTED NEUTROPHIL” value [6] was 1227.33 CELLS/uL and the BASOPHIL [6] was 0%. The EOSINOPHIL [6] was 0.33%, the “ERYTHROCYTE COUNT” value [6] was 5.19 x10E6/uL and the HEMATOCRIT [6] was 32.97%. For the same sequence, the HEMOGLOBIN [6] was 12.73 G/DL, the “LEUKOCYTE COUNT” value [6] was 15.87 x10E3/uL and the LYMPHOCYTE [6] was 91.67%. For the same sequence, the “MEAN CORPUSCULAR HEMOGLOBIN” value [6] was 24.57 pg, the “MEAN CORPUSCULAR HEMOGLOBIN CONCENTRATION” value [6] was 38.63 G/DL and the “MEAN CORPUSCULAR VOLUME” value [6] was 63.57 fL. The MONOCYTE [6] was 0.33%, the NEUTROPHIL [6] was 7.67% and the “NUCLEATED RED BLOOD CELLS” value [6] was 0 /100WBC. The “PLATELET COUNT” value [6] was 1222.33 x10E3/uL, the “ALANINE AMINOTRANSFERASE” value [7] was 55.67 u/L and the ALBUMIN [7] was 4 G/DL. For the same sequence, the “ALKALINE PHOSPHATASE” value [7] was 327 u/L, the “ASPARTATE AMINOTRANSFERASE” value [7] was 105 u/L and the “BLOOD UREA NITROGEN” value [7] was 14.67 mg/dL. The “CARBON DIOXIDE” value [7] was 20.67 mmol/L, the CHLORIDE [7] was 107.33 MEQ/L and the CHOLESTEROL [7] was 82 mg/dL. For the same sequence, the “CREATINE PHOSPHOKINASE” value [7] was 574.67 u/L, the CREATININE [7] was 0.29 mg/dL and the GLUCOSE [7] was 196.33 mg/dL. The “LACTATE DEHYDROGENASE” value [7] was 268.67 u/L, the LIPASE [7] was 11.33 u/L and the POTASSIUM [7] was 6.59 MEQ/L. The SODIUM [7] was 147.27 MEQ/L, the “TOTAL BILIRUBIN” value [7] was 0.2 mg/dL and the “TOTAL PROTEIN” value [7] was 5.7 G/DL. The “ABSOLUTE BASOPHIL” value [8] was 0 CELLS/uL, the “ABSOLUTE EOSINOPHIL” value [8] was 0 CELLS/uL and the “ABSOLUTE LYMPHOCYTE” value [8] was 14029.67 CELLS/uL. The “ABSOLUTE MONOCYTE” value [8] was 90.67 CELLS/uL, the “ABSOLUTE SEGMENTED NEUTROPHIL” value [8] was 1246.33 CELLS/uL and the BASOPHIL [8] was 0%. For the same sequence, the EOSINOPHIL [8] was 0%, the “ERYTHROCYTE COUNT” value [8] was 5.74 x10E6/uL and the HEMOGLOBIN [8] was 13.5 G/DL. The “LEUKOCYTE COUNT” value [8] was 15.37 x10E3/uL, the LYMPHOCYTE [8] was 91% and the “MEAN CORPUSCULAR HEMOGLOBIN” value [8] was 23.57 pg. For the same sequence, the “MEAN CORPUSCULAR HEMOGLOBIN CONCENTRATION” value [8] was 36.03 G/DL, the MONOCYTE [8] was 0.67% and the NEUTROPHIL [8] was 8.33%. The “NUCLEATED RED BLOOD CELLS” value [8] was 0 /100WBC, the “PLATELET COUNT” value [8] was 1310.33 x10E3/uL and the “ALANINE AMINOTRANSFERASE” value [9] was 46.33 u/L. The ALBUMIN [9] was 4.2 G/DL, the “ALKALINE PHOSPHATASE” value [9] was 391.33 u/L and the “ASPARTATE AMINOTRANSFERASE” value [9] was 95.33 u/L. For the same sequence, the “CARBON DIOXIDE” value [9] was 24 mmol/L, the CHLORIDE [9] was 106.67 MEQ/L and the CHOLESTEROL [9] was 71 mg/dL. For the same sequence, the “CREATINE PHOSPHOKINASE” value [9] was 308.33 u/L, the CREATININE [9] was 0.18 mg/dL and the “LACTATE DEHYDROGENASE” value [9] was 196.33 u/L. The PHOSPHORUS [9] was 13.37 mg/dL, the POTASSIUM [9] was 7.64 MEQ/L and the “TOTAL BILIRUBIN” value [9] was 0.2 mg/dL.

Source: ChEMBL document CHEMBL3885881, “DrugMatrix”
